# Experimental data as given in PMC12114840, “Exploring the Anticancer Properties of 1,2,3-Triazole-Substituted Andrographolide Derivatives” (Pharmaceuticals, 2025).
# Tested on: CCD-18Co cells (non-tumorigenic colon)
# Test: Sulforhodamine B (SRB) antiproliferative assay, CCD-18Co
# Assay type: cell-based
# Conditions: Homo sapiens, CCD-18Co non-tumorigenic, 48 h, mean ± SEM of four to six independent experiments
# Experimental: The antiproliferative properties of andrographolide and all prepared derivatives (2–26) were evaluated against a panel of different cancer cell lines, including human pancreatic ductal adenocarcinoma (PANC-1), colorectal adenocarcinoma (HCT116), melanoma (A375), breast adenocarcinoma (MCF-7) and a non-tumorigenic colon (CCD-18Co) cell line using the sulforhodamine B assay.
# Human breast adenocarcinoma MCF-7, pancreatic ductal adenocarcinoma PANC-1, melanoma A375, and non-tumorigenic colon CCD-18Co cell lines were purchased from ATCC (Rockville, MD, USA). Human colorectal adenocarcinoma HCT116 cells were kindly provided by B. Vogelstein (The Johns Hopkins Kimmel Cancer Center, Baltimore, MD, USA). Tumor cells were routinely cultured in RPMI-1640 medium with UltraGlutamine from Biowest (VWR, Carnaxide, Portugal) supplemented with 10% fetal bovine serum (FBS) from Biowest (VWR, Carnaxide, Portugal), except for the PANC-1 cells, which were grown in DMEM (4.5 g/L glucose) with stable L-glutamine and sodium pyruvate and supplemented with 10% FBS. The non-tumorigenic CCD-18Co cells were cultured in EMEM (Lonza, VWR, Carnaxide, Portugal), supplemented with 10% FBS. All cells were incubated at 37 °C in a humidified atmosphere of 5% CO2. Routine mycoplasma testing was performed using the MycoAlert™ PLUS mycoplasma detection kit (Lonza).
# For the evaluation of the compound effect on cell proliferation, human cell lines were seeded in 96-well plates at a density of 5.0 × 10^3 (HCT116, MCF-7, PANC-1, A375, and CCD-18Co) cells per well, for 24 h. Cells were then treated with serial dilutions of the compound (ranging from 0.63 to 30 µM), for an additional 48 h incubation period. The growth inhibitory effects were assessed by SRB assay, as described in [58], and the half-maximal inhibitory concentration (IC50 values) were determined for each cell line using the GraphPad Prism software version 7.0 (La Jolla, CA, USA). Culture medium containing a maximum of 0.05% dimethyl sulfoxide (DMSO) was used as negative control.
compound,measurement,value
"C=C1CC[C@@H]2[C@](C)(COC(C)=O)[C@H](OC(C)=O)CC[C@@]2(C)[C@@H]1C[C@H](C1=CCOC1=O)n1cc(-c2ccc(Br)cc2)nn1 [Compound 12, (12R)-4-bromophenyl-1,2,3-triazole-3,19-diacetoxy-14-deoxy-andrographolide]",IC50,9.6 ± 2.3 µM
